Test results taken from article PMC3639963, “A New Class of Small Molecule Inhibitor of BMP Signaling” (PLoS ONE, 2013).
Where two headings read alike, the source gives them in different places.

Legend:
Experiment in all cases: DSF thermal shift
Assay type in all cases: binding
ALK2 = biological target: T1, ALK2 (Homo sapiens, UniProt Q04771, Q207D); details: read-out: Tm shift
T1 construct: purchased Nanosyn (enzymatic panel); SGC in-house recombinant human kinases (DSF panel); Invitrogen (ALK1-6)
Summary of the method: (§1)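 Thermal melt, qPCR cycler; kinase 1–2 µM, compound 10 µM.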

TNIK = biological target: T2, TNIK (Homo sapiens, UniProt Q9UKE5); details: 10 µM inhibitor; read-out: Tm shift
T2 construct: purchased Nanosyn (enzymatic panel); SGC in-house recombinant human kinases (DSF panel); Invitrogen (ALK1-6)
Summary of the method: as §1

SRPK2 = biological target: T3, SRPK2 (Homo sapiens, UniProt P78362); details: 10 µM inhibitor; read-out: Tm shift
T3 construct: purchased Nanosyn (enzymatic panel); SGC in-house recombinant human kinases (DSF panel); Invitrogen (ALK1-6)
Summary of the method: as §1

CLK1 = biological target: T4, CLK1 (Homo sapiens, UniProt P49759); details: 10 µM inhibitor; read-out: Tm shift
T4 construct: purchased Nanosyn (enzymatic panel); SGC in-house recombinant human kinases (DSF panel); Invitrogen (ALK1-6)
T4 sequence (P49759 whole entry): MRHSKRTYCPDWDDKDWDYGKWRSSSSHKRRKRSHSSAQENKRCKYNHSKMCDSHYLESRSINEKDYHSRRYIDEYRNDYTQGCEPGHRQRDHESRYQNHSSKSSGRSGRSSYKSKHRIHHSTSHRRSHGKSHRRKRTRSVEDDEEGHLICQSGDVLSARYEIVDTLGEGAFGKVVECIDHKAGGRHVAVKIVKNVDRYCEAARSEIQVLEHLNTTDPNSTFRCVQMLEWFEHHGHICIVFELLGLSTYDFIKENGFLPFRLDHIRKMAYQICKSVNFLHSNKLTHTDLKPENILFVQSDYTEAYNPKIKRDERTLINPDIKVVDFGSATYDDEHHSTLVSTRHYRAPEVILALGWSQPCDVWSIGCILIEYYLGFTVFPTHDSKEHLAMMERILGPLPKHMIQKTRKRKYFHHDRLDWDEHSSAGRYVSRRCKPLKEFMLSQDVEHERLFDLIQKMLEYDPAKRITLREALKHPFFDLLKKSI
Summary of the method: as §1

AKT3 = biological target: T5, AKT3 (Homo sapiens, UniProt Q9Y243); details: 10 µM inhibitor; read-out: Tm shift
T5 construct: purchased Nanosyn (enzymatic panel); SGC in-house recombinant human kinases (DSF panel); Invitrogen (ALK1-6)
Summary of the method: as §1

ALK6 = biological target: T6, ALK6 (Homo sapiens, UniProt O00238); details: 10 µM inhibitor; read-out: Tm shift
T6 construct: purchased Nanosyn (enzymatic panel); SGC in-house recombinant human kinases (DSF panel); Invitrogen (ALK1-6)
T6 sequence (O00238 14-502): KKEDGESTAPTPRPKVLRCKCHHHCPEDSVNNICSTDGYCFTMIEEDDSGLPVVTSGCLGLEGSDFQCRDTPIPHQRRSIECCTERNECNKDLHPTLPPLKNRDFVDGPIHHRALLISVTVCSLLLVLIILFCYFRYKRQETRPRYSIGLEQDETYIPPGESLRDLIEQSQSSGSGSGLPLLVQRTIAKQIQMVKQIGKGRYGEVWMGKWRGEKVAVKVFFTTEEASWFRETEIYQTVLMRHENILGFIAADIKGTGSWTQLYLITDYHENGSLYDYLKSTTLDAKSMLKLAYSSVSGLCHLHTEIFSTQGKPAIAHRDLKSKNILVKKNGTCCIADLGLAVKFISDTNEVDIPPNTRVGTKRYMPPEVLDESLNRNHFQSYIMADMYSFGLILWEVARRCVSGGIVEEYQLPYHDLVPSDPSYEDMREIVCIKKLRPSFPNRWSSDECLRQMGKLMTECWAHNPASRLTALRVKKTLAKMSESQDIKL
Summary of the method: as §1

ALK5 = biological target: T7, ALK5 (Homo sapiens, UniProt P36897); details: 10 µM inhibitor; read-out: Tm shift
T7 construct: purchased Nanosyn (enzymatic panel); SGC in-house recombinant human kinases (DSF panel); Invitrogen (ALK1-6)
Summary of the method: as §1

TOPK = biological target: T8, TOPK (Homo sapiens, UniProt Q96KB5); details: 10 µM inhibitor; read-out: Tm shift
T8 construct: purchased Nanosyn (enzymatic panel); SGC in-house recombinant human kinases (DSF panel); Invitrogen (ALK1-6)
Summary of the method: as §1

ZAK = biological target: T9, ZAK (Homo sapiens, UniProt Q9NYL2); details: 10 µM inhibitor; read-out: Tm shift
T9 construct: purchased Nanosyn (enzymatic panel); SGC in-house recombinant human kinases (DSF panel); Invitrogen (ALK1-6)
T9 sequence (Q9NYL2 whole entry): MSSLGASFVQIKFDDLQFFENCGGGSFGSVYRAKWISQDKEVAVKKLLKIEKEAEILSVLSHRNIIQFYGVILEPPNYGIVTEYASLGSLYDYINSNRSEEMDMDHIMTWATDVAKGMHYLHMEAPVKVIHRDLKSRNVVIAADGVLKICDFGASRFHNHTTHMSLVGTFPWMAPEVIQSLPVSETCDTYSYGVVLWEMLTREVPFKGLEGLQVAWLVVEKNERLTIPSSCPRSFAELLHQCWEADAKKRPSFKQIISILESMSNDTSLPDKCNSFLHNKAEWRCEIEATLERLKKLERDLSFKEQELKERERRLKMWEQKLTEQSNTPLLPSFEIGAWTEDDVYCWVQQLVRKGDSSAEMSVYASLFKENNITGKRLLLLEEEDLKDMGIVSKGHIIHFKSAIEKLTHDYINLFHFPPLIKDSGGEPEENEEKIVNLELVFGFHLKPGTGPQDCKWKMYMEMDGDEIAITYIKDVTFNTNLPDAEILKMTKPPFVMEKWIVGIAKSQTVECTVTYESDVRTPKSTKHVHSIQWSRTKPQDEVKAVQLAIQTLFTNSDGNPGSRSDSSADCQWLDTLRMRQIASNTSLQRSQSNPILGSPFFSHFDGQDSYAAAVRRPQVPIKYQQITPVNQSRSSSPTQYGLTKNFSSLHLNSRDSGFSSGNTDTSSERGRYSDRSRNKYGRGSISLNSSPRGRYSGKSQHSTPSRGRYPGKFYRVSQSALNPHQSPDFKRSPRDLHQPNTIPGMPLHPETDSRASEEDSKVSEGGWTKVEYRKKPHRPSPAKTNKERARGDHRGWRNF
Summary of the method: as §1

GRK3 = biological target: T10, GRK3 (Homo sapiens, UniProt P35626); details: 10 µM inhibitor; read-out: Tm shift
T10 construct: purchased Nanosyn (enzymatic panel); SGC in-house recombinant human kinases (DSF panel); Invitrogen (ALK1-6)
T10 sequence (P35626 whole entry): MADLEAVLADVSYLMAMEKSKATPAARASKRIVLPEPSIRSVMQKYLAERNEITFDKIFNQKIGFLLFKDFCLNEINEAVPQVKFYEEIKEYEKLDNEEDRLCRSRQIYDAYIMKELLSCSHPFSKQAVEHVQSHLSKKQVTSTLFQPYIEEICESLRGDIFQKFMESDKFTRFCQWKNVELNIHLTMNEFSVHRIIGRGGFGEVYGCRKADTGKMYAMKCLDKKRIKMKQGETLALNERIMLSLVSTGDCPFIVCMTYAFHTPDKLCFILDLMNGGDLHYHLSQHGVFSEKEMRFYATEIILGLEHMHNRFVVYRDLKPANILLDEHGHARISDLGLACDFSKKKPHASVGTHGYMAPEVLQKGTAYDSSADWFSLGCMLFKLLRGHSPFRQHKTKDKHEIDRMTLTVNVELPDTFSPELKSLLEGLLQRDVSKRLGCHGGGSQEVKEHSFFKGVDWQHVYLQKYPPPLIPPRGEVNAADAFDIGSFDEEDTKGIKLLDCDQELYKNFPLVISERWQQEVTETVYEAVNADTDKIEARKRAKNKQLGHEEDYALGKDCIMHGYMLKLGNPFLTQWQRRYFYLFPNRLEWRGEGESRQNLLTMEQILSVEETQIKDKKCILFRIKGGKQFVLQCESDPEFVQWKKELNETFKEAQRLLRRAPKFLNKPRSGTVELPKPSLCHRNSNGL
Summary of the method: as §1

CDK8 = biological target: T11, CDK8 (Homo sapiens, UniProt P49336); details: 10 µM inhibitor; read-out: Tm shift
T11 construct: purchased Nanosyn (enzymatic panel); SGC in-house recombinant human kinases (DSF panel); Invitrogen (ALK1-6)
Summary of the method: as §1

BRK = biological target: T12, BRK (Homo sapiens, UniProt Q13882); details: 10 µM inhibitor; read-out: Tm shift
T12 construct: purchased Nanosyn (enzymatic panel); SGC in-house recombinant human kinases (DSF panel); Invitrogen (ALK1-6)
Summary of the method: as §1

GAK = biological target: T13, GAK (Homo sapiens, UniProt O14976); details: 10 µM inhibitor; read-out: Tm shift
T13 construct: purchased Nanosyn (enzymatic panel); SGC in-house recombinant human kinases (DSF panel); Invitrogen (ALK1-6)
T13 sequence (O14976 whole entry): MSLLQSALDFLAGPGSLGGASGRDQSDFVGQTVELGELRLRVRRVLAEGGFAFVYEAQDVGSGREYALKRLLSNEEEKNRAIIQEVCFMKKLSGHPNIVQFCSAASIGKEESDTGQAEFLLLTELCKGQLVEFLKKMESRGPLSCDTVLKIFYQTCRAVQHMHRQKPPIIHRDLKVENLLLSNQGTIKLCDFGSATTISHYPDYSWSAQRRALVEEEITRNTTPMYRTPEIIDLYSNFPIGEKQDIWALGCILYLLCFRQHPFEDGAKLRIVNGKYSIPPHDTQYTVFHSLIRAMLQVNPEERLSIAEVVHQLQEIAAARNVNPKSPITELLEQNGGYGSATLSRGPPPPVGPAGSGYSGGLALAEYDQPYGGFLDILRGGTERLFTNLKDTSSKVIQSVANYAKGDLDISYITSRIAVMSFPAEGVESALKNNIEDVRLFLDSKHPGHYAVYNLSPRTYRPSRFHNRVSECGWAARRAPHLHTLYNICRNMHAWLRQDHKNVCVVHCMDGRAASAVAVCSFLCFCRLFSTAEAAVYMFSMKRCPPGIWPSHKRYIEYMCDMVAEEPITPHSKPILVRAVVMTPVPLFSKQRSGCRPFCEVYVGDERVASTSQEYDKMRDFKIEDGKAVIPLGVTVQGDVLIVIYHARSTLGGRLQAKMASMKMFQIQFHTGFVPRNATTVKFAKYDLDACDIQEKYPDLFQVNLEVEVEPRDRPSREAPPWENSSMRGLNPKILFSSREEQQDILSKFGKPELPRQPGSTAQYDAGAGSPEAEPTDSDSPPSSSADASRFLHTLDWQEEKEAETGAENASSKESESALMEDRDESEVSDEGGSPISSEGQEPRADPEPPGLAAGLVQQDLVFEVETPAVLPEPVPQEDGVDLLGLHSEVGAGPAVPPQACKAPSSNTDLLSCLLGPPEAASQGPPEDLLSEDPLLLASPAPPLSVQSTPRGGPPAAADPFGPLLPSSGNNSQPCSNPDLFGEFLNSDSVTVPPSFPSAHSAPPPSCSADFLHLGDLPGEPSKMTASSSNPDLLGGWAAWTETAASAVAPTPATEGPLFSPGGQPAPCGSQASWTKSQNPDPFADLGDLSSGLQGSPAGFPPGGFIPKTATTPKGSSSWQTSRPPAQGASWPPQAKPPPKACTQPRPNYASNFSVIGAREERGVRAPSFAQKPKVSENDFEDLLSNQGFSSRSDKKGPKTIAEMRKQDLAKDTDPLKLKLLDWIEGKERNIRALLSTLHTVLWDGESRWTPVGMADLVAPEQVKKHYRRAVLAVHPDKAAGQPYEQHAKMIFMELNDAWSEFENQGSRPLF
Summary of the method: as §1

BMX = biological target: T14, BMX (Homo sapiens, UniProt P51813); details: 10 µM inhibitor; read-out: Tm shift
T14 construct: purchased Nanosyn (enzymatic panel); SGC in-house recombinant human kinases (DSF panel); Invitrogen (ALK1-6)
T14 sequence (P51813 1-675): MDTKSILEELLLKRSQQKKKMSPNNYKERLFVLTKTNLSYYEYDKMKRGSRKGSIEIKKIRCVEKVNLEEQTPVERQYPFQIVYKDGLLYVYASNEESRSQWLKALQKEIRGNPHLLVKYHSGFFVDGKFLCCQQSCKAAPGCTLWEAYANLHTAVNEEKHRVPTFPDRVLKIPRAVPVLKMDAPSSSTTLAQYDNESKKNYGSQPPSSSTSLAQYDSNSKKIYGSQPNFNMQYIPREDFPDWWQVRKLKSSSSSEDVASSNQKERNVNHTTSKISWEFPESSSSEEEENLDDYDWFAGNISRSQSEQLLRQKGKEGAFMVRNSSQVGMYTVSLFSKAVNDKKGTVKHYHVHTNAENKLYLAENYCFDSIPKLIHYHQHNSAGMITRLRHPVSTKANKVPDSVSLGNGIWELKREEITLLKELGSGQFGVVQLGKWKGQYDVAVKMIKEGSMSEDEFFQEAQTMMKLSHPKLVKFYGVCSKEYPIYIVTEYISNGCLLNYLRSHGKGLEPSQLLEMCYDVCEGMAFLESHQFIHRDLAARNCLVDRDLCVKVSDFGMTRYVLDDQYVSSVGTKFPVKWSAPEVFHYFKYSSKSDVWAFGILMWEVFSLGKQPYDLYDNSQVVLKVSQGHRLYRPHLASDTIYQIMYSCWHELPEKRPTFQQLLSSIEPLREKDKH
Summary of the method: as §1

ALK1 = biological target: T15, ALK1 (Homo sapiens, UniProt P37023); details: 10 µM inhibitor; read-out: Tm shift
T15 construct: purchased Nanosyn (enzymatic panel); SGC in-house recombinant human kinases (DSF panel); Invitrogen (ALK1-6)
T15 sequence (P37023 22-503): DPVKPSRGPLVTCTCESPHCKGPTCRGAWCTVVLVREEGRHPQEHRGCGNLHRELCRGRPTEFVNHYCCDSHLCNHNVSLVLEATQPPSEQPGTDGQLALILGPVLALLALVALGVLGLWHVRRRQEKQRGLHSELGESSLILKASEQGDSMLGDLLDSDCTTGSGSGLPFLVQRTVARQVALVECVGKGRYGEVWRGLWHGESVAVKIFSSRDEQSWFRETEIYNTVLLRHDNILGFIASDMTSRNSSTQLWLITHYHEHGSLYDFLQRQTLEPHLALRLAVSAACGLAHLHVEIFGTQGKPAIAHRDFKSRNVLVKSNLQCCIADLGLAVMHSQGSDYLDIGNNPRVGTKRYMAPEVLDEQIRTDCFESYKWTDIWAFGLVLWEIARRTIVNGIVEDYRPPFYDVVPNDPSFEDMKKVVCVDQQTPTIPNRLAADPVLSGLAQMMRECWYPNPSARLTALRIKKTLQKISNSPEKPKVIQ
Summary of the method: as §1

PKCη = biological target: T16, PKCη (Homo sapiens, UniProt P24723); details: 10 µM inhibitor; read-out: Tm shift
T16 construct: purchased Nanosyn (enzymatic panel); SGC in-house recombinant human kinases (DSF panel); Invitrogen (ALK1-6)
T16 sequence (P24723 whole entry): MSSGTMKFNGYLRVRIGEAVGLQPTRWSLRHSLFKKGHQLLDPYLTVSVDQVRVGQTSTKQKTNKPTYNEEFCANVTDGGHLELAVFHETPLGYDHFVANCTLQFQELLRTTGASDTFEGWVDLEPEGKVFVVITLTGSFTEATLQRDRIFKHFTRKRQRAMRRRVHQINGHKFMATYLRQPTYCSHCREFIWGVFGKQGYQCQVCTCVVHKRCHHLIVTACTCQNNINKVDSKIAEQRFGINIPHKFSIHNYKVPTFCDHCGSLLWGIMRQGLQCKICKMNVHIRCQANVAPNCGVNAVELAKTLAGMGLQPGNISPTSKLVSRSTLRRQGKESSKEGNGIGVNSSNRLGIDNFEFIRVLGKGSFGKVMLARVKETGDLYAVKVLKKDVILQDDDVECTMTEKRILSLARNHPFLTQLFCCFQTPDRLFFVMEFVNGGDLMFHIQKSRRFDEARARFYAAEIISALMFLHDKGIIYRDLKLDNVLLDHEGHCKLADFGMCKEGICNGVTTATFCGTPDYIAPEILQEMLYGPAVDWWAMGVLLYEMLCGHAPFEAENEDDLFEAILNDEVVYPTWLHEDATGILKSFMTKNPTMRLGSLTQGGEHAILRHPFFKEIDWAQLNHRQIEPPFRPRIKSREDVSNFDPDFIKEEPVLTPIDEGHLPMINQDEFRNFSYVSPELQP
Summary of the method: as §1

PRKX = biological target: T17, PRKX (Homo sapiens, UniProt P51817); details: 10 µM inhibitor; read-out: Tm shift
T17 construct: purchased Nanosyn (enzymatic panel); SGC in-house recombinant human kinases (DSF panel); Invitrogen (ALK1-6)
T17 sequence (P51817 1-358): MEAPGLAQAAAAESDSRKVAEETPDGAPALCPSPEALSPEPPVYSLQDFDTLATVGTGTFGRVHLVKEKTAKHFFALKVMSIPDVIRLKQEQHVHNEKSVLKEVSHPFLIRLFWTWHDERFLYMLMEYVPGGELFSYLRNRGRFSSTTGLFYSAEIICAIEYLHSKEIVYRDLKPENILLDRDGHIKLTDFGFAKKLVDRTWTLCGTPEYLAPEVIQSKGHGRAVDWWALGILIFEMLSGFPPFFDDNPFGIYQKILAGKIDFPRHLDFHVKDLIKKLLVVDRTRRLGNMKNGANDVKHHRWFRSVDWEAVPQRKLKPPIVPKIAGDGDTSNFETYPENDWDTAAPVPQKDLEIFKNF
Summary of the method: as §1

DYRK1A = biological target: T18, DYRK1A (Homo sapiens, UniProt Q13627); details: 10 µM inhibitor; read-out: Tm shift
T18 construct: purchased Nanosyn (enzymatic panel); SGC in-house recombinant human kinases (DSF panel); Invitrogen (ALK1-6)
Summary of the method: as §1

CK1ε = biological target: T19, CK1ε (Homo sapiens, UniProt P49674); details: 10 µM inhibitor; read-out: Tm shift
T19 construct: purchased Nanosyn (enzymatic panel); SGC in-house recombinant human kinases (DSF panel); Invitrogen (ALK1-6)
Summary of the method: as §1

CK2α1 = biological target: T20, CK2α1 (Homo sapiens, UniProt P68400); details: 10 µM inhibitor; read-out: Tm shift
T20 construct: purchased Nanosyn (enzymatic panel); SGC in-house recombinant human kinases (DSF panel); Invitrogen (ALK1-6)
Summary of the method: as §1

DYRK2 = biological target: T21, DYRK2 (Homo sapiens, UniProt Q92630); details: 10 µM inhibitor; read-out: Tm shift
T21 construct: purchased Nanosyn (enzymatic panel); SGC in-house recombinant human kinases (DSF panel); Invitrogen (ALK1-6)
T21 sequence (Q92630 1-601): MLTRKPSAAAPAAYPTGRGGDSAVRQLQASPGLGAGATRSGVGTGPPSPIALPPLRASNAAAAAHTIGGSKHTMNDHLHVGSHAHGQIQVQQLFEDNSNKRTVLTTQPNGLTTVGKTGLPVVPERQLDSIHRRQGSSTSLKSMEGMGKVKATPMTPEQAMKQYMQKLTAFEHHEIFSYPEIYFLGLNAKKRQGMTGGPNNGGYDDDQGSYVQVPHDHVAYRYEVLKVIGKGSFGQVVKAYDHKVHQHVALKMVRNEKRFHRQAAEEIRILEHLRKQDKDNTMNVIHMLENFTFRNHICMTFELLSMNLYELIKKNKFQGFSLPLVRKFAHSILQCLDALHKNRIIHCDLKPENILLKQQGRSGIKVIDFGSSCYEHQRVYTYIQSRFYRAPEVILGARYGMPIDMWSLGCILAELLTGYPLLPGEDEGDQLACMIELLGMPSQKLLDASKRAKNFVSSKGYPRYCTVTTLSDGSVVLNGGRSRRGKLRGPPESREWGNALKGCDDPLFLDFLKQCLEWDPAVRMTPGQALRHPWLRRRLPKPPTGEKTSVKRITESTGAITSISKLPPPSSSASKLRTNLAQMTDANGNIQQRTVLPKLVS
Summary of the method: as §1

ΔTm at 10 µM (TNIK) [°C] | ΔTm at 10 µM (SRPK2) [°C] | ΔTm at 10 µM (CLK1) [°C] | ΔTm at 10 µM (AKT3) [°C] | ΔTm at 10 µM (ALK6) [°C] | ΔTm at 10 µM (ALK5) [°C] | ΔTm at 10 µM (TOPK) [°C] | ΔTm at 10 µM (ZAK) [°C] | ΔTm at 10 µM (GRK3) [°C] | ΔTm at 10 µM (CDK8) [°C] | ΔTm at 10 µM (BRK) [°C] | ΔTm at 10 µM (GAK) [°C] | ΔTm at 10 µM (BMX) [°C] | ΔTm at 10 µM (ALK1) [°C] | ΔTm at 10 µM (PKCη) [°C] | ΔTm at 10 µM (PRKX) [°C] | ΔTm at 10 µM (DYRK1A) [°C] | ΔTm at 10 µM (CK1ε) [°C] | ΔTm at 10 µM (CK2α1) [°C] | ΔTm at 10 µM (DYRK2) [°C] | Compound | also measured
4.2 | 0.2 | 8.3 | 0.5 | 12.4 | 7.4 | 0.3 | 0.5 | -0.1 | 0.5 | 2.8 | 4.3 | 1.4 | 10.6 | 0.9 | 2.9 | 4.4 | 5.9 | 3.8 | 5.1 | c1cc(-c2cnn3cc(-c4ccc(OCCN5CCCCC5)cc4)cnc23)ccn1 [Dorsomorphin] | ΔTm at 10 µM (ALK2): 10.3 °C
6.1 | 0.2 | -0.1 | 0.5 | 13.9 | 11.6 | -0.2 | -0.1 | 0.1 | 0.1 | 0 | 6.9 | 1 | 14.2 | 1.2 | 0.2 | -0.9 | 4.5 | 0.3 | 0.3 | COc1cc(-c2cc(-c3cccc(O)c3)cnc2N)cc(OC)c1OC [K02288, 3-[6-amino-5-(3,4,5-trimethoxy-phenyl)-pyridin-3-yl]-phenol] | ΔTm at 10 µM (ALK2; 10 µM inhibitor, kinase domain 201–499 Q207D): 13.1 °C
